From PMC2635096 (Journal of biological inorganic chemistry : JBIC : a …, 2008)
Read-outs that look alike come from different tables or passages of the source.

Experiments:
[1] = target: NP1 (wild-type nitrophorin 1) (Rhodnius prolixus, UniProt Q26239); assay: UV/Vis ligand titration, equilibrium binding constants
[2] = target: H60C_NP1 (His-60 to Cys-60 mutant of nitrophorin 1) (Rhodnius prolixus, UniProt Q26239, H82C); assay: biochemical; type: binding
[3] = tested on: H60C_NP1 (His-60 to Cys-60 mutant of nitrophorin 1); assay: biochemical; type: binding, Rhodnius prolixus; settings: H60C_NP1 vs NP1
[4] = read-out: Dissociation constant (Kd) of ligand complex of NP1, 25°C, PBS buffer (50mM Na-phosphate, 100 mM NaCl, pH 7.4), UV/Vis titration

Sequence of NP1 (wild-type nitrophorin 1) (Q26239 24-207): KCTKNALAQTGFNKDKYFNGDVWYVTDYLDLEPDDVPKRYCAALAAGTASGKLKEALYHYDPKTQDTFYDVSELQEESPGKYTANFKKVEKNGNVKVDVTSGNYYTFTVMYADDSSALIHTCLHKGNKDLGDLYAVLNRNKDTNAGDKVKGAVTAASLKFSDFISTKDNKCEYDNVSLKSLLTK
Sequence of H60C_NP1 (His-60 to Cys-60 mutant of nitrophorin 1) (Rhodnius prolixus, UniProt Q26239, H82C) (Q26239 24-207 H82C): as the sequence (Q26239 24-207) above, with H59C counted along it

SMILES: Cc1c[nH]cn1 [4-Methylimidazole]
- Kd [1]: 182 nM
- Kd [2]: 560000 nM
- Increase in dissociation constant for H60C_NP1 relative to NP1 [3]: more than three orders of magnitude

SMILES: CCCCn1ccnc1 [N-(n-Butyl)imidazole]
- Kd [1, 4]: 52 nM

SMILES: c1c[nH]cn1 [Imidazole]
- Kd [1, 4]: 255 nM
- Kd ([1]; read-out: Dissociation constant (Kd) of ligand complex of NP1, 25°C, PBS buffer (50mM Na-phosphate, 100 mM NaCl, pH 7.4), UV/Vis titration, listed as imidazole): 250 nM
